Assay results as given in PubChem BioAssay (NCI).
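Dose response: 5 concentrations. Exposure: 48 h. Format: 96-well plates. Endpoint: linear interpolation; highest concentration if not reached. Here, GI50 denotes the concentration required for 50% inhibition of growth. TGI: concentration producing complete growth inhibition.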

What was measured:
Test in all cases: NCI tumour cell line growth inhibition, 48 h
[1] = test system: DMS 114 small cell lung
[2] = test system: DMS 273 small cell lung
[3] = test system: HOP-18 NSCLC
[4] = test system: KM20L2 colon
[5] = test system: LXFL 529 NSCLC
[6] = test system: RXF-631 renal
[7] = test system: XF 498 CNS
[8] = test system: MDA-N
[9] = test system: M19-MEL melanoma
[10] = test system: P388 leukemia
[11] = test system: P388/ADR leukemia
[12] = test system: SN12K1 renal

Work on Nn1c(-c2cccc(Cl)c2)nc2ccccc2c1=O yielded a TGI [1] greater than 100 µM, a TGI [2] greater than 100 µM and a TGI [3] greater than 100 µM. For the same compound, the TGI [4] was greater than 100 µM, the TGI [5] was greater than 100 µM and the TGI [6] was greater than 100 µM. The TGI [7] was greater than 100 µM.
With Cn1c2c(c3ccccc3c1=O)C(=O)c1ccccc1-2 the TGI [8] was greater than 100 µM.
Compound N#CC(C(=N/O)/C(=N\O)C(C#N)c1ccccc1)c1ccccc1 (stereo not drawn) has a TGI [1] greater than 100 µM, a TGI [3] greater than 100 µM and a TGI [4] greater than 100 µM. For the same compound, the TGI [5] was greater than 100 µM, the TGI [9] was greater than 100 µM and the TGI [6] was greater than 100 µM. For the same compound, the TGI [7] was greater than 100 µM.
O=C1CC(Cc2n[nH]c3c2CCCC3)CC(=O)N1 showed a TGI [8] greater than 100 µM.
CC(=O)c1ccc2c3c1[C@H]1O[C@H]1c1cccc(c1-3)[C@@H]1O[C@H]21 was tested, and the TGI [8] was 5.86 µM.
Compound Cc1ccc(C)c(NC(=O)C(=O)C2C(=O)N(c3ccccc3)N=C2N)c1 (stereo not drawn) has a TGI [2] greater than 100 µM, a TGI [3] greater than 100 µM and a TGI [4] greater than 100 µM. For the same compound, the TGI [5] was greater than 100 µM, the TGI [9] was greater than 100 µM and the TGI [6] was greater than 100 µM. The TGI [7] was greater than 100 µM.
Compound CC(C)(C)[Si](C)(C)OCCc1ccccc1C1CC2(S(=O)(=O)c3ccccc3)ON1CC2S(=O)(=O)c1ccccc1 (stereo not drawn) has a TGI [8] greater than 100 µM.
Cc1cc(Cl)ccc1N=C1NC(=O)C(CC(=O)Nc2cccc(C)c2C)S1 (stereo not drawn) was tested, and the TGI [1] was 66.6 µM, the TGI [2] was 81 µM and the TGI [4] was 87.2 µM. For the same compound, the TGI [9] was greater than 100 µM, the TGI [6] was 84.3 µM and the TGI [7] was 39 µM.
CN(C)N=Nc1cccc(C(N)=O)c1 was tested, and the TGI [1] was greater than 100 µM, the TGI [2] was greater than 100 µM and the TGI [3] was greater than 100 µM. The TGI [4] was greater than 100 µM, the TGI [5] was greater than 100 µM and the TGI [9] was greater than 100 µM. The TGI [7] was greater than 100 µM.
O=[N+]([O-])c1ccc(C2SCc3nc4ccccc4n32)cc1 (stereo not drawn) showed a TGI [1] greater than 100 µM, a TGI [2] greater than 100 µM and a TGI [3] greater than 100 µM. The TGI [4] was greater than 100 µM, the TGI [5] was greater than 100 µM and the TGI [9] was greater than 100 µM. The TGI [6] was greater than 100 µM and the TGI [7] was 80.6 µM.
COc1cc([C@@H]2OC(=O)C3C2C(=O)O[C@H]3c2ccc(O)c(OC)c2)ccc1O (stereo partly drawn) was tested, and the TGI [1] was greater than 100 µM, the TGI [2] was greater than 100 µM and the TGI [3] was greater than 100 µM. For the same compound, the TGI [4] was greater than 100 µM, the TGI [5] was greater than 100 µM and the TGI [9] was greater than 100 µM. The TGI [6] was greater than 100 µM.
With O=C(Nc1ccc([N+](=O)[O-])cc1[N+](=O)[O-])C(=O)C(C(=O)c1ccc(Cl)c(Cl)c1)C1OC(=O)c2ccccc21 (stereo not drawn) the TGI [1] was 59.5 µM, the TGI [2] was greater than 100 µM and the TGI [4] was 89.7 µM. The TGI [5] was 47.3 µM and the TGI [9] was 79.4 µM.
In the case of CCOC(=O)/C(C#N)=C\Sc1ccccc1, the TGI [1] was 33.9 µM, the TGI [2] was 41.9 µM and the TGI [3] was greater than 100 µM. The TGI [4] was 51.9 µM, the TGI [5] was 57.3 µM and the TGI [9] was 63.8 µM. It also gave a TGI [6] of 53.2 µM and a TGI [7] greater than 100 µM.
C[C@]12CC(C=O)C(=O)C(O)=C1CC[C@@H]1C2CC[C@@]2(C)C1CC[C@]2(C)O (stereo partly drawn) was tested, and the TGI [1] was 33.4 µM, the TGI [2] was 46.8 µM and the TGI [4] was 52.9 µM. The TGI [5] was 31.6 µM, the TGI [9] was 44.8 µM and the TGI [6] was 72.7 µM. The TGI [7] was 33.4 µM.
Cc1c(NC(=O)Nc2c(Cl)cccc2Cl)c(=O)n(-c2ccccc2)n1C was tested, and the TGI [8] was greater than 100 µM.
COC(=O)C12C34C=CC5(CCC6(C=CC1(CC3)O6)C52C(=O)OC)O4 (stereo not drawn) showed a TGI [2] greater than 100 µM, a TGI [3] greater than 100 µM and a TGI [4] greater than 100 µM. The TGI [5] was greater than 100 µM, the TGI [9] was greater than 100 µM and the TGI [6] was greater than 100 µM. For the same compound, the TGI [7] was greater than 100 µM.
Work on COc1cc(C2c3cc4c(cc3[C@@H](Nc3ccc([N+](=O)[O-])cc3)C3COC(=O)[C@H]23)OCO4)cc(OC)c1O (stereo partly drawn) yielded a GI50 [1] of 614 nM, a TGI [1] of 6.26 µM and a GI50 [2] of 274 nM. The TGI [2] was 5.65 µM, the TGI [3] was 77.2 µM and the TGI [4] was 14.8 µM. It also gave a TGI [5] of 78.3 µM, a GI50 [9] of 942 nM and a TGI [9] of 22.8 µM. It also gave a TGI [8] greater than 100 µM, a TGI [10] greater than 100 µM and a TGI [11] of 10.7 µM. For the same compound, the TGI [6] was 11.4 µM, the TGI [12] was 2880 nM and the GI50 [7] was 613 nM. The TGI [7] was 15 µM.
Work on O=C1C(Cl)=C(Cl)C(=O)N1c1cccc(C(F)(F)F)c1 yielded a TGI [1] greater than 100 µM, a TGI [2] greater than 100 µM and a TGI [3] greater than 100 µM. For the same compound, the TGI [4] was greater than 100 µM, the TGI [5] was greater than 100 µM and the TGI [9] was greater than 100 µM. It also gave a TGI [6] greater than 100 µM and a TGI [7] greater than 100 µM.
Work on CCCCCCCCC(C)CCCCCCCCC(=O)OCC(COP(=O)([O-])OCC[N+](C)(C)C)OC(=O)CCCCCCCCC(C)CCCCCCCC (stereo not drawn) yielded a TGI [1] greater than 100 µM, a TGI [2] greater than 100 µM and a TGI [3] greater than 100 µM. It also gave a TGI [4] greater than 100 µM, a TGI [5] greater than 100 µM and a TGI [9] greater than 100 µM. The TGI [6] was greater than 100 µM.
CC(C)N1C(C)[C@@H](c2ccccc2)O[P@@]1(=O)CC1=CCCCC1 (stereo partly drawn) showed a TGI [1] greater than 100 µM, a TGI [3] greater than 100 µM and a TGI [4] greater than 100 µM. It also gave a TGI [5] greater than 100 µM, a TGI [9] greater than 100 µM and a TGI [7] greater than 100 µM.
